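Interpolation was linear, between the two tested concentrations surrounding the appropriate level; five concentrations were tested over 48 hours in 96-well plates. GI50: concentration for 50% inhibition of growth.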 Active and inactive are the calls of the source. Cut-off read from the data, not from the text of the source: active = GI50 up to about 1.1 µM and inactive = higher.
Key:
Assay in all cases: growth of human tumour cells (NCI), 48 h
LOX IMVI = test system: LOX IMVI
ACHN = test system: ACHN
HL-60 = test system: HL-60
UACC-62 = test system: UACC-62
HCC 2998 = test system: HCC 2998
SR = test system: SR
NCI-H522 = test system: NCI-H522
SF-295 = test system: SF-295
OVCAR-4 = test system: OVCAR-4
K562 = test system: K562
A549 = test system: A549
HCT-116 = test system: HCT-116
NCI/ADR-RES = test system: NCI/ADR-RES
MCF7 = test system: MCF7
SNB-75 = test system: SNB-75
DMS-114 = test system: DMS-114
DLD-1 = test system: DLD-1
M19-MEL = test system: M19-MEL
SNB-78 = test system: SNB-78
DMS-273 = test system: DMS-273

Row | Compound | GI50 (LOX IMVI) | GI50 (ACHN) | GI50 (HL-60) | GI50 (UACC-62) | GI50 (HCC 2998) | GI50 (SR) | GI50 (NCI-H522) | GI50 (SF-295) | GI50 (OVCAR-4) | GI50 (K562) | GI50 (A549) | GI50 (HCT-116) | GI50 (NCI/ADR-RES) | GI50 (MCF7) | GI50 (SNB-75) | GI50 (DMS-114) | GI50 (DLD-1) | GI50 (M19-MEL) | GI50 (SNB-78) | GI50 (DMS-273)
1 | CC(=O)OC[C@H]1[C@@H]2C(CC[C@]13CO3)OC(=O)CC(C)[C@]2(C)CCc1ccoc1 (some centres undefined) | > 100 µM (inactive) | > 100 µM (inactive) | > 100 µM (inactive) | > 100 µM (inactive) | > 100 µM (inactive) | > 100 µM (inactive) | > 100 µM (inactive) | > 100 µM (inactive) | > 100 µM (inactive) | > 100 µM (inactive) | > 100 µM (inactive) | > 100 µM (inactive) | > 100 µM (inactive) | > 100 µM (inactive) |  |  |  |  |  | 
2 | C=CC1OC(CCCOC(=O)C(C)(C)C)O[C@@H]1CC (some centres undefined) |  | > 100 µM (inactive) | 7.38 µM (inactive) | > 100 µM (inactive) |  | > 100 µM (inactive) | > 100 µM (inactive) | > 100 µM (inactive) | > 100 µM (inactive) |  | > 100 µM (inactive) |  | > 100 µM (inactive) | > 100 µM (inactive) | > 100 µM (inactive) |  |  |  |  | 
3 | Cc1ccc(C)c(NC(=O)C(=O)C(C(=O)c2ccc3ccccc3c2)C2OC(=O)c3ccccc32)c1 (centres undefined) | 13.6 µM (inactive) | 26.5 µM (inactive) | 17.1 µM (inactive) | 14.6 µM (inactive) | 15 µM (inactive) | 4.45 µM (inactive) | 10 µM (inactive) | 10.4 µM (inactive) | 21.9 µM (inactive) | 25.7 µM (inactive) | 18.2 µM (inactive) | 12.3 µM (inactive) |  |  | 12.4 µM (inactive) | 7.21 µM (inactive) | 23 µM (inactive) | 12.7 µM (inactive) | 17.9 µM (inactive) | 3.87 µM (inactive)
4 | OC(c1cccnc1Cl)c1nc2ccccc2c2ccnc(Cl)c12 (centres undefined) | 7.01 µM (inactive) | 9.91 µM (inactive) | 2.77 µM (inactive) | 2.06 µM (inactive) |  | 0.396 µM (active) | 1.05 µM (active) | 2.52 µM (inactive) | 27.5 µM (inactive) | 1.4 µM (inactive) | 7.76 µM (inactive) | 3.35 µM (inactive) | 2.88 µM (inactive) | 3.04 µM (inactive) | 15 µM (inactive) |  |  |  |  | 
5 | NNC(N)Nc1ccccc1 (centres undefined) |  | > 100 µM (inactive) | > 100 µM (inactive) | > 100 µM (inactive) | > 100 µM (inactive) | > 100 µM (inactive) | > 100 µM (inactive) | > 100 µM (inactive) | > 100 µM (inactive) | > 100 µM (inactive) | > 100 µM (inactive) |  | > 100 µM (inactive) | > 100 µM (inactive) |  |  |  |  |  | 
6 | CCOP(=O)(COCCn1nc(Br)c(=O)[nH]c1=O)OCC | > 100 µM (inactive) | > 100 µM (inactive) | > 100 µM (inactive) |  | > 100 µM (inactive) | > 100 µM (inactive) | > 100 µM (inactive) |  |  | > 100 µM (inactive) | > 100 µM (inactive) |  | > 100 µM (inactive) | > 100 µM (inactive) | > 100 µM (inactive) |  |  |  |  | 
7 | CC(C)=CC1CC(=O)C1(C)Sc1ccccc1 (centres undefined) | 17.3 µM (inactive) | > 100 µM (inactive) | 22.8 µM (inactive) | > 100 µM (inactive) | > 100 µM (inactive) | 20 µM (inactive) | 24 µM (inactive) | > 100 µM (inactive) | > 100 µM (inactive) | 21.9 µM (inactive) | 48.2 µM (inactive) | 29.6 µM (inactive) |  |  | 65.2 µM (inactive) | 16.6 µM (inactive) | 52.8 µM (inactive) | 27.5 µM (inactive) | 60.1 µM (inactive) | 
8 | CCOC(=O)c1c(NC(=O)Nc2ccccc2)c(C(N)=O)c2n1CCCCC2 | > 100 µM (inactive) | > 100 µM (inactive) | > 100 µM (inactive) | > 100 µM (inactive) | > 100 µM (inactive) | > 100 µM (inactive) |  | > 100 µM (inactive) | > 100 µM (inactive) | > 100 µM (inactive) |  | > 100 µM (inactive) | > 100 µM (inactive) | > 100 µM (inactive) | > 100 µM (inactive) |  |  |  |  | 
9 | CC(c1ccccc1)/[N+]([O-])=C/c1ccccc1 (centres undefined) | > 100 µM (inactive) | > 100 µM (inactive) | > 100 µM (inactive) |  | > 100 µM (inactive) |  | > 100 µM (inactive) | > 100 µM (inactive) |  | > 100 µM (inactive) | > 100 µM (inactive) | > 100 µM (inactive) |  |  | > 100 µM (inactive) | > 100 µM (inactive) | > 100 µM (inactive) | > 100 µM (inactive) | > 100 µM (inactive) | > 100 µM (inactive)
10 | C=C1C(=O)OC2/C=C(\C(=O)O)CC/C=C(\C)CC(OC(=O)/C=C(\C)CC)C12 (centres undefined) | 15.3 µM (inactive) | 17 µM (inactive) | 72.6 µM (inactive) | 14.3 µM (inactive) | 18.6 µM (inactive) | > 100 µM (inactive) | 17.8 µM (inactive) | 17.3 µM (inactive) | 16.9 µM (inactive) | > 100 µM (inactive) | 16 µM (inactive) | 12.9 µM (inactive) |  |  | 19.5 µM (inactive) | 15.4 µM (inactive) | 16.7 µM (inactive) | 15.6 µM (inactive) | 23 µM (inactive) | 19 µM (inactive)
11 | O=S(=O)(c1ccccc1)C1CC(c2nc3ccccc3[nH]2)=NO1 (centres undefined) | > 100 µM (inactive) | > 100 µM (inactive) |  | > 100 µM (inactive) | > 100 µM (inactive) | 29.3 µM (inactive) | 28.6 µM (inactive) | > 100 µM (inactive) | > 100 µM (inactive) | 31.6 µM (inactive) | > 100 µM (inactive) | 52.6 µM (inactive) | > 100 µM (inactive) | 53.3 µM (inactive) | > 100 µM (inactive) |  |  |  |  | 
12 | Cc1cc(O)c(C(C)C)cc1SC#N | 11.9 µM (inactive) | 16.2 µM (inactive) | 35.1 µM (inactive) | 14.6 µM (inactive) | 17.2 µM (inactive) |  | 5.46 µM (inactive) | 17.3 µM (inactive) | 13.5 µM (inactive) | 6.3 µM (inactive) |  |  | 19.2 µM (inactive) | 14.9 µM (inactive) | 10.4 µM (inactive) |  |  |  |  | 
13 | O=C(N/C=C1\C(=O)Oc2ccccc2C1=O)NC1CCCCC1 | 85.3 µM (inactive) | 30.5 µM (inactive) | 40 µM (inactive) | 28 µM (inactive) | > 100 µM (inactive) | > 100 µM (inactive) |  |  | 77.8 µM (inactive) |  | > 100 µM (inactive) | 78.5 µM (inactive) |  |  |  | 45.3 µM (inactive) |  | 73.5 µM (inactive) | 22.9 µM (inactive) | > 100 µM (inactive)
14 | CN1C[C@H]2[C@@H](C1=O)[C@H](c1ccc([N+](=O)[O-])cc1)ON2C | > 100 µM (inactive) | > 100 µM (inactive) | > 100 µM (inactive) |  | > 100 µM (inactive) | > 100 µM (inactive) | > 100 µM (inactive) | > 100 µM (inactive) | > 100 µM (inactive) | > 100 µM (inactive) | > 100 µM (inactive) | > 100 µM (inactive) | > 100 µM (inactive) | > 100 µM (inactive) |  |  |  |  |  | 
15 | CCN1c2ccccc2NC(=S)c2c(-c3ccccc3)n[nH]c21 | 30.5 µM (inactive) | 37.2 µM (inactive) | 13.6 µM (inactive) | 27.3 µM (inactive) | 3.99 µM (inactive) | 24.7 µM (inactive) | 21 µM (inactive) | 27.4 µM (inactive) | 36.6 µM (inactive) | 17.6 µM (inactive) | 24.8 µM (inactive) | 33.2 µM (inactive) | 23.1 µM (inactive) | 22.4 µM (inactive) | 55.7 µM (inactive) |  |  |  |  | 
16 | O=S(=O)(O)c1ccc(/N=N\c2ccc(/N=N\c3ccc(/C=C/c4ccc(/N=[N+](/[O-])c5ccc(/C=C/c6ccc(/N=N/c7ccc(/N=N\c8ccc(S(=O)(=O)O)cc8)cc7)cc6S(=O)(=O)O)c(S(=O)(=O)O)c5)cc4S(=O)(=O)O)c(S(=O)(=O)O)c3)cc2)cc1 | > 100 µM (inactive) |  | > 100 µM (inactive) | > 100 µM (inactive) | > 100 µM (inactive) |  | 86.3 µM (inactive) | > 100 µM (inactive) | > 87.9 µM (inactive) | > 100 µM (inactive) | > 100 µM (inactive) | > 100 µM (inactive) | > 100 µM (inactive) | > 100 µM (inactive) | 69.7 µM (inactive) | > 100 µM (inactive) | > 100 µM (inactive) | > 100 µM (inactive) |  | > 100 µM (inactive)
17 | O=C(NC(Cc1ccc(I)cc1)C(=O)O)c1ccc(Cl)cc1 (centres undefined) | > 100 µM (inactive) |  | > 100 µM (inactive) | 74.8 µM (inactive) | > 38.8 µM (inactive) |  | 74.3 µM (inactive) | > 100 µM (inactive) | > 66.8 µM (inactive) | > 100 µM (inactive) | > 100 µM (inactive) | > 100 µM (inactive) | > 100 µM (inactive) | 37.8 µM (inactive) | 87.3 µM (inactive) |  | > 100 µM (inactive) | > 100 µM (inactive) | > 100 µM (inactive) | > 100 µM (inactive)
18 | O=C(O)C1=C(CO)Oc2cc3c(cc2C1c1ccc2c(c1)OCO2)OCO3 (centres undefined) | > 100 µM (inactive) | > 100 µM (inactive) | > 100 µM (inactive) | > 100 µM (inactive) |  |  |  | > 100 µM (inactive) | > 100 µM (inactive) | > 100 µM (inactive) | > 100 µM (inactive) | > 100 µM (inactive) |  |  | > 100 µM (inactive) | > 100 µM (inactive) | > 100 µM (inactive) | > 100 µM (inactive) | > 100 µM (inactive) | > 100 µM (inactive)
